Results on 15 molecules are retold here after PubChem BioAssay (NCI).

What all share (assay): NCI-60 cell line screen, 48 h
Assay [1] has as its system SF-268 CNS.
Assay [2] concerns UO-31 renal.
In assay [3] the test system is A549 NSCLC.
Assay [4] concerns OVCAR-3 ovarian.
The subject of assay [5] is SNB-19 CNS.
Assay [6] relates to SR leukemia.
Assay [7] concerns CCRF-CEM leukemia.
Assay [8] has as its system SK-MEL-5 melanoma.
The subject of assay [9] is MDA-MB-231 breast.

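Protocol summary: plate cells (96-well), add compound at 5 concentrations, incubate 48 h, interpolate endpoints linearly. Here, GI50 denotes the concentration required for 50% inhibition of growth. The concentration for full growth arrest is given as TGI.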 Some results are limits rather than exact numbers.

Regarding `OC1CC(O)O[C@H](c2ccccc2)C1` (some centres undefined), the TGI in assay [1], in [2], in assay [3], in assay [4], in [5] and in assay [6] was more than 100 µM in each case. For the same molecule, the TGI in assay [7] and in assay [8] was more than 100 µM in each case.

Regarding `COC(=O)C1c2cc3c(c(O)c2CCC1(C)O)C(=O)c1c(O)cc2c(c1C3=O)OC1OC2(C)C(O)C(N(C)C)C1O` (centres undefined), the TGI stood at 11.1 µM in assay [1]; 4.62 µM in assay [2]; 0.916 µM in [3]; 1.62 µM in [4]; 1.39 µM in assay [5]; 1.69 µM in [9]. For the same molecule, the TGI in assay [8] amounted to 1.73 µM.

As to `CC(=O)OCc1nnn2c1C(OC(C)=O)CC2` (centres undefined), the TGI in [2], in assay [3], in [4], in assay [5], in assay [6] and in [8] was more than 100 µM throughout.

For the molecule `CNC(=O)/C=C/C1=CN2C(=O)c3ccc(C)c(O)c3NC(OC)C2C1` (centres undefined), the TGI in [1] was 0.08 µM; in [2], 0.265 µM; in assay [3], more than 100 µM; in [4] it was 0.417 µM; in [5] it was 27.6 µM; in assay [6], 0.0598 µM. Moreover, the TGI was more than 4.64 µM in assay [7], less than 0.0397 µM in assay [9] and 0.186 µM in [8].

`NNC(=O)/C(NC(=O)c1ccccc1)=C(\N)c1cccc([N+](=O)[O-])c1`: the TGI in assay [1], in [2], in assay [3], in assay [4], in assay [5] and in assay [6] was more than 100 µM in each case. In addition, the TGI in [7] and in assay [8] was more than 100 µM throughout.

`CC(=O)[O-].CC(=O)[O-].O=C([CH-]C(=O)c1ccccc1)c1ccccc1.[Nd+3].[OH3+]`: the GI50 in [1] is 16.8 µM; in assay [2], 17 µM; in assay [3] it was 28.2 µM; in [4], 10.7 µM; in assay [5], 30.1 µM; in assay [8], 14.5 µM. In addition, the TGI in assay [1] was more than 100 µM; in assay [2], 49.3 µM; in [3], 84.3 µM; in assay [4], 33.5 µM; in assay [5] it was more than 100 µM; in assay [8], 33.9 µM.

`Cc1[nH]c(=O)n2c(C)nnc2c1C(=O)O`: the TGI in assay [1], in [2], in assay [4], in assay [6] and in [7] was more than 100 µM in each case.

Regarding `OC1(C(Sc2ccccc2)Sc2ccccc2)CCCCCC1`, the TGI in assay [1] was more than 100 µM; in assay [2], 16.6 µM; in assay [3], 89.5 µM; in assay [4] it was 45.7 µM; in assay [5] it was 77.4 µM; in [6], 67 µM. In addition, the TGI in assay [7] was 77.3 µM; in assay [8] it was 29.6 µM.

`CC[O-].CC[O-].O=C1C=C([O-])C(=O)c2ccccc21.O=C1C=C([O-])C(=O)c2ccccc21.[Ti+4]`: the GI50 is more than 100 µM in assay [1]; more than 86.1 µM in [2]; 26 µM in [3]; more than 100 µM in assay [4]; more than 84.5 µM in assay [5]; more than 100 µM in assay [7]. Besides, in [8], the GI50 was 3.07 µM. Moreover, the TGI in assay [1], in assay [2], in assay [3], in assay [4], in assay [5] and in assay [7] was more than 100 µM each time. The TGI in [8] turned out to be 55.9 µM.

On to `C/C=C1\Oc2ccc(OC)cc2S1(=O)=O`, for which the TGI in assay [1], in [2], in assay [3], in assay [4], in assay [5] and in assay [6] was more than 100 µM each time. The TGI in assay [7] and in assay [8] was more than 100 µM throughout.

`O=C(O)C1=Cc2cccc3cccc(c23)C1=O`: the TGI in assay [1], in assay [2], in assay [3], in assay [4], in assay [5] and in assay [6] was more than 100 µM throughout. Moreover, the TGI in assay [7] and in assay [8] was more than 100 µM each time.

With `C[C@@H](NC1CCCC[C@@H]1O)c1ccccc1` (some centres undefined), the TGI in assay [2], in [3], in assay [4], in [5], in assay [7] and in assay [8] was more than 100 µM throughout.

Take `CCN(N=O)C1C2(CCCC2)NC(=O)C12CCCC2` (centres undefined): the TGI in assay [1], in assay [2], in [3], in assay [4], in [5] and in assay [6] was more than 100 µM throughout. This molecule also showed a TGI in assay [7] of more than 100 µM.

For the molecule `O=C(O)c1ccc(CSc2nc3ccccc3[nH]2)cc1`, the GI50 in [1], in assay [2], in [3], in [4], in assay [5] and in assay [6] was more than 100 µM in each case. In addition, the GI50 in assay [7], in assay [9] and in assay [8] was more than 100 µM each time. Also, the TGI in assay [1], in assay [2], in assay [3], in assay [4], in [5] and in assay [6] was more than 100 µM in each case. Besides, the TGI in assay [7], in assay [9] and in assay [8] was more than 100 µM in each case.

Regarding `CCOC(=O)CCc1c(C)c2c(OC)cc(OC)cc2oc1=O`, the TGI in assay [1], in assay [2], in assay [3], in assay [4] and in [5] was more than 100 µM throughout.
